Four molecules from publication PMC9822769, “The Strange Case: The Unsymmetric Cisplatin-Based Pt(IV) Prodrug [Pt(CH3COO)Cl2(NH3)2(OH)] Exhibits Higher Cytotoxic Activity with respect to Its Symmetric Congeners due to Carrier-Mediated Cellular Uptake” (Bioinorganic Chemistry and Applications, 2022) can be followed below.

One assay concerns HCT 116. Nature of the assay: Resazurin reduction cell viability assay, HCT 116. Format: cell-based, human. Conditions: 72 h of treatment; mean ± sd. On the procedure:
The compounds under investigation were tested on a panel of commercial human cancer cell lines: ovarian endometrioid adenocarcinoma A2780 (ICLC HTL98008), its cisplatin-resistant variant A2780cisR (ECACC 93112517), colon carcinoma HCT 116 (ECACC 91091005), breast invasive ductal carcinoma MCF7 (ECACC 86012803), embryonal carcinoma NTERA-2 clone D1 (also known as NT2/D1, ICLC HTL97025), and lung adenocarcinoma A549 (ICLC HTL03001). Furthermore, a cell line derived from the pleural effusion of a patient with untreated malignant pleural mesothelioma (MPM) was added to the panel, namely, MM98 (sarcomatoid phenotype). Commercial cells were purchased from the European Collection of Authenticated Cell Cultures (ECACC, UK) or the Interlab Cell Line Collection (ICLC, Genoa, Italy), while the MM98 cell line was obtained from the Pathology Unit of the National Hospital of Alessandria (Italy).
The following media were used to grow the cells: RPMI 1640 (for A2780, A2780cisR, NT2/D1, and A549 cells), DMEM (for MCF7 cells), DMEM supplemented with nonessential amino acids (for MM98 cells), and McCoy's 5A (for HCT 116 cells). All media contained L-glutamine (2 mM) and were added with penicillin (100 IU·mL^−1), streptomycin (100 mg·L^−1), and 10% heat inactivated FBS. To maintain resistance in A2780cisR cells, cisplatin (1 μM) was added to the medium every two passages.
Continuous treatments (CT) were carried out at 37°C in a humidified chamber with 5% CO2. Cisplatin was dissolved in a 0.9% w/v NaCl aqueous solution and brought to pH = 3 with HCl (final stock concentration 1 mM). The Pt(IV) Complexes 1–3 were dissolved in milliQ water (final stock concentration 5 mM) and stored at −20°C. The stock concentration was confirmed with inductively coupled plasma-mass spectrometry (ICP-MS) measurements. The mother solutions were diluted in a complete medium to the required concentration.
To assess the growth inhibition of the compounds under investigation, a cell viability test (i.e., the resazurin reduction assay) was used. […] At the end of the treatment (72 h), viability was evaluated with 100 μg·mL^−1 resazurin (Acros Chemicals, France) in a fresh medium for 1 h at 37°C, and the amount of the reduced product, resorufin, was measured by fluorescence (excitation λ = 535 nm, emission λ = 595 nm) with a Tecan Infinite F200Pro plate reader (Tecan, Austria). In each experiment, cells were challenged with drug candidates at different concentrations, and the final data were calculated from at least three replicates of the same experiment performed in triplicate. The fluorescence of 8 wells containing a medium without cells was used as a blank. Fluorescence data were normalized to 100% cell viability for nontreated cells. […]
(Alamar Blue is a resazurin reagent that responds to reducing activity.)

A further assay relates to A2780 cells. Put plainly: Cellular Pt accumulation in A2780 cells in the presence of uptake inhibitors. As to conditions: A2780, 1 h, 10 μM; for effect of NaN3/2DG pretreatment on cell accumulation (AR): NaN3 and 2DG both 25 mM. Format: cell-based, human. On the procedure: A2780 and A2780cisR cells were seeded in 10 mm Petri dishes and challenged with complexes under investigation (10 μM) in a complete medium for 4 h. At the end of the exposure, cells were washed three times with PBS, detached from Petri dishes using 0.05% trypsin 1x + 2% EDTA (HyClone, Thermo Fisher), and harvested in a completely fresh medium. An automatic cell counting device (Countess®, Life Technologies) was used to measure the number and mean diameter of each cell necessary to calculate the mean cellular (spherical) volume.
For the analysis of Pt accumulation, cells were transferred to a borosilicate glass tube and centrifuged at 1100 rpm for 5 min at room temperature. The supernatant was carefully removed by aspiration, while approximately, 200 μL of the supernatant was left to limit cell loss. Cellular pellets were stored at −80°C until mineralization.
The determination of the platinum content was performed by ICP-MS (Thermo Optek X Series 2). Mineralization was carried out by adding 70% w/w HNO3 to each sample (after defrosting), followed by incubation for 1 h at 60°C in an ultrasonic bath. Before the ICP-MS measurement, HNO3 was diluted to a final concentration of 1%. The instrument settings were optimized to produce the highest platinum sensitivity, and the most abundant isotopes of Pt and In (used as an internal standard) were quantified at m/z 195 and 115, respectively.
The quantity of Pt found in cells and normalized on cell number (cellular Pt accumulation) was expressed as ng of Pt per 10^6 cells. The mean cellular volume, calculated from the actual mean cell diameter measured for each sample (about 12 μm), was used to obtain the volume of 10^6 cells and, finally, the intracellular Pt concentration. At treatment time zero, 100 μL of the medium was taken from each sample to verify the extracellular Pt concentration. The ratio between intracellular and the actual extracellular concentrations is defined as the accumulation ratio, AR [70]. The Pt content in the control experiment, which characterizes any possible Pt contamination during the overall process, was statistically insignificant with respect to the cellular Pt accumulated during treatment, even in the case of A2780cisR.
Experiments with the inhibitors were carried out at 37°C as follows: (i) NaN3 + 2-deoxy-D-glucose (2DG): preincubation for 30 min in PBS with 25 mM NaN3 and 25 mM 2DG, followed by a 10 μM CT with the Pt compounds in Earle's Balanced Salt Solution (EBSS) for 1 h; (ii) cimetidine (CMT): coincubation with 1.5 mM CMT and 10 μM Pt compounds in EBSS for 1 h; (iii) 1-methyl-4-phenylpyridin-1-ium (MPP^+): coincubation with 2.0 mM MPP^+ and 10 μM Pt compounds in EBSS for 1 h; (iv) cytochalasin D (CTD): preincubation for 30 min in EBSS with 10 μM CTD, followed by a 10 μM CT with the Pt compounds in EBSS for 1 h; (v) O-benzylserine (BS): coincubation with 1.0 mM BS and 10 μM Pt compounds in EBSS for 4 h; (vi) ouabain (OUA): preincubation for 1 h in EBSS with 1 mM OUA, followed by a 10 μM CT with the Pt compounds in EBSS for 4 h; (vii) tetraethylammonium chloride (TEA): […] in EBSS for 4 h. In the experiments at low temperature, A2780 cells were preincubated for 2 h at 4°C, followed by CT with each Pt compound (10 μM) for 4 h. In all cases, at the end of the CT, the cells were manipulated as described in the previous paragraphs.

A word on the IC50: it is the concentration at which inhibition is half-maximal. Low values mean greater potency, high ones weaker potency. Molecule `N.N.[Cl][Pt][Cl]` [Cisplatin, (SP-4-2)-diamminedichloridoplatinum(II)] came in with an IC50 in the assay with HCT 116 of 2.3 ± 0.3 µM.

Consider `N.N.[OH][Pt]([OH])([Cl])[Cl]` [Complex 1, (OC-6-33)-diamminedichloridodihydroxidoplatinum(IV)], for which half-maximal inhibition in the assay with HCT 116 (IC50) was put at 22.9 ± 3.89 µM. Further, in the assay on A2780 cells, the “effect of OCT inhibitors (TEA, MPP+, CMT) on AR” value was “not significantly affected” and the “effect of NaN3/2DG pretreatment on cell accumulation (AR)” value (from here on “effect of NaN3/2DG pretreatment”) is “without appreciably affecting”.

In the assay on HCT 116, `CC(=O)[O][Pt]([OH])([Cl])[Cl].N.N` [Complex 2, (OC-6-44)-acetatodiamminedichloridohydroxidoplatinum(IV)] had an IC50 of 1.46 ± 0.02 µM. In the assay on A2780 cells (BS cotreatment 1 mM), the “effect of O-benzylserine (BS) on cellular accumulation” value was “did not cause a significant effect”. The “effect of cimetidine (CMT) on cell accumulation” value in the assay on A2780 cells (CMT cotreatment 1.5 mM) is “inhibited”. Also, the “effect of cytochalasin D (CTD) on Pt accumulation” value in the assay on A2780 cells (CTD pretreatment 10 μM) was “did not cause any decrease”. Besides, in the assay with A2780 cells (MPP+ cotreatment 2 mM), the “effect of MPP+ on cell accumulation” value is listed as “inhibited”. The “effect of NaN3/2DG pretreatment” value with A2780 cells is reported as “statistically reduced”. Besides, the “effect of ouabain (OUA) on cellular accumulation” value with A2780 cells (OUA pretreatment 1 mM) was “did not cause a significant effect”. Besides, the “effect of tetraethylammonium (TEA) on uptake” value with A2780 cells (TEA pretreatment 20 mg·mL^−1) is reported as “evident (albeit statistically not significant) decrease”.

Consider `CC(=O)[O][Pt]([NH2])([NH2])([Cl])([Cl])[O]C(C)=O` [Complex 3, (OC-6-33)-diamminedichloridodiacetatoplatinum(IV)], for which the IC50 in the assay on HCT 116 was determined as 55.3 ± 1.69 µM. Also, in the assay with A2780 cells, the “effect of OCT inhibitors (TEA, MPP+, CMT) on AR” value is given as “not significantly affected” and the “effect of NaN3/2DG pretreatment” value is listed as “without appreciably affecting”.
